{
  "source": "patent US20060165806A1",
  "about": "“Nanoparticulate candesartan formulations” (Elan Pharma International Limited, priority 2005, published 2006)",
  "origin": "cited, not measured here",
  "key": {"AT1 receptor": {"molecular_target": "T1, AT1 receptor (Homo sapiens, UniProt P30556)", "T1 sequence (P30556 1-359)": "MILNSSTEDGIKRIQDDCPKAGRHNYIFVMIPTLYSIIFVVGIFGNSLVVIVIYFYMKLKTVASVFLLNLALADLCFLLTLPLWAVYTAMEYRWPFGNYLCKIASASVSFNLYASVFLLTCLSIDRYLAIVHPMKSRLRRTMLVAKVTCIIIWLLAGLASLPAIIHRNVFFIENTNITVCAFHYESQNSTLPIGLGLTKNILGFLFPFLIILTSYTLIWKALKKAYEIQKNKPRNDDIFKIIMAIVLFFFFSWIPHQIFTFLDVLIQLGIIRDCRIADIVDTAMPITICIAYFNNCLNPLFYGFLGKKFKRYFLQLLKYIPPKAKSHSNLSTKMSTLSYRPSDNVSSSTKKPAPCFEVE", "conditions": "AT1 versus AT2 receptor"}, "ACE (kininase II)": {"molecular_target": "ACE (kininase II) (Homo sapiens, UniProt P12821)", "sequence (P12821 30-1306, species assumed)": "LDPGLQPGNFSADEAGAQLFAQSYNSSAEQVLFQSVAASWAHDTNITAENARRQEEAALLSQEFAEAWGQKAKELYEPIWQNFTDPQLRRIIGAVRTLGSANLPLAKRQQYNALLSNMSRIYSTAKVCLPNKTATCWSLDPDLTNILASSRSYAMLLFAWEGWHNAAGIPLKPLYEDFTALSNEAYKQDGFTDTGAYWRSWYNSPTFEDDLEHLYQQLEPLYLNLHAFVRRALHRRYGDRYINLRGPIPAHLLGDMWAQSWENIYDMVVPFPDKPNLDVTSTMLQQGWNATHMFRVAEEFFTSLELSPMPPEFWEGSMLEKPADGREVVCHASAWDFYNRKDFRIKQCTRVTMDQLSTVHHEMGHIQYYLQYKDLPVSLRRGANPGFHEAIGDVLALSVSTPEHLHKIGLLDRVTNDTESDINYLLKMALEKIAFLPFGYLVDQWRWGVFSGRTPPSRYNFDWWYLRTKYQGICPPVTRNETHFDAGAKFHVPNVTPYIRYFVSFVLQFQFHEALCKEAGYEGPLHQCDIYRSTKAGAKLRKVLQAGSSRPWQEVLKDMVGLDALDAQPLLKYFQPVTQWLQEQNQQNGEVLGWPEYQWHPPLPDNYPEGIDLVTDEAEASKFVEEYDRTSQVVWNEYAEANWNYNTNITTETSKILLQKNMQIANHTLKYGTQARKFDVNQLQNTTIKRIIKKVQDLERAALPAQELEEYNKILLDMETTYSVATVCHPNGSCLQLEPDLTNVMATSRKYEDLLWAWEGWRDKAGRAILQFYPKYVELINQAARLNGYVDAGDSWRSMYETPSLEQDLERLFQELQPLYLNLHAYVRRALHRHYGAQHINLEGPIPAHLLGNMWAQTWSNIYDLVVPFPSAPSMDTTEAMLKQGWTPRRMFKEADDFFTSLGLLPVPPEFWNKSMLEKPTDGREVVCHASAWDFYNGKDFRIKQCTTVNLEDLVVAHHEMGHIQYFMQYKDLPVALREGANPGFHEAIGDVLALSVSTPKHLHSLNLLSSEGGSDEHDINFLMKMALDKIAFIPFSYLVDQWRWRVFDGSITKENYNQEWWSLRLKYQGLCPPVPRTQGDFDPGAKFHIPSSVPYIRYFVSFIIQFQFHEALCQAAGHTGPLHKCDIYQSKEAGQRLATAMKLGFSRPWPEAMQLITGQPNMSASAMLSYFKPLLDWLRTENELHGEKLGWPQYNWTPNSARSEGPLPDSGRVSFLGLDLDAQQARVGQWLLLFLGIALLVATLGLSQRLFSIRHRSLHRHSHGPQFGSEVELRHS"}, "[1]": {"test_system": "other hormone receptors or ion channels known to be important in cardiovascular regulation", "conditions": "receptors and channels important in cardiovascular regulation"}},
  "data": [
    {"compound": "CCOc1nc2cccc(C(=O)OC(C)OC(=O)OC3CCCCC3)c2n1Cc1ccc(-c2ccccc2-c2nnn[nH]2)cc1", "note": "(racemic) [Candesartan cilexitil, (“)-1-Hydroxyethyl 2-ethoxy-1-[p-(o-1H-tetrazol-5-ylphenyl)benzyl]-7-benzimidazolecarboxylate, cyclohexyl carbonate(ester)]", "values": [
      {"measurement": "solubility in water", "result": "practically insoluble"}
    ]},
    {"compound": "CCOc1nc2cccc(C(=O)O)c2n1Cc1ccc(-c2ccccc2-c2nnn[nH]2)cc1", "note": "[Candesartan]", "values": [
      {"measurement": "greater affinity for the AT1 receptor than for the AT2 receptor", "setting": "AT1 receptor", "result": "> 10,000 fold"},
      {"measurement": "inhibition of ACE (kininase II)", "setting": "ACE (kininase II)", "result": "does not inhibit"},
      {"measurement": "binding to or blocking of other hormone receptors or ion channels", "setting": "[1]", "result": "does not bind to or block"}
    ]}
  ]
}
